The record followed here is the supplement of paper PMC10307832.

Test in all cases: relative viability (nuclei count vs DMSO), 5 days (fraction); higher = more cells survive
Compound in the experiment “Selumetinib + Bortezomib”: Cn1cnc2c(F)c(Nc3ccc(Br)cc3Cl)c(C(=O)NOCCO)cc21 [Selumetinib] + CC(C)C[C@H](NC(=O)[C@H](Cc1ccccc1)NC(=O)c1cnccn1)B(O)O [Bortezomib] (partner 0.002 µM)
The method in brief: (§1)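 Lung cancer cell lines in 1536-well plates got either a single drug or a fixed anchor-drug dose together with five library-drug doses (not always all listed) in √10 steps, by pin tool, on the day after seeding. Nuclei were counted after 5 days, and relative viability is the treated-to-vehicle ratio of nuclei counts. Values are medians of duplicate plates.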

Compound in the experiment “Selumetinib + Tozasertib”: Cn1cnc2c(F)c(Nc3ccc(Br)cc3Cl)c(C(=O)NOCCO)cc21 [Selumetinib] + Cc1cc(Nc2cc(N3CCN(C)CC3)nc(Sc3ccc(NC(=O)C4CC4)cc3)n2)n[nH]1 [Tozasertib] (partner 0.1 µM)
The method, boiled down: as §1

Compound in the experiment “Selumetinib + Dasatinib”: Cn1cnc2c(F)c(Nc3ccc(Br)cc3Cl)c(C(=O)NOCCO)cc21 [Selumetinib] + Cc1nc(Nc2ncc(C(=O)Nc3c(C)cccc3Cl)s2)cc(N2CCN(CCO)CC2)n1 [Dasatinib] (partner 0.075 µM)
The method, boiled down: as §1

Compound in the experiment “Venetoclax + Linsitinib”: CC1(C)CCC(CN2CCN(c3ccc(C(=O)NS(=O)(=O)c4ccc(NCC5CCOCC5)c([N+](=O)[O-])c4)c(Oc4cnc5[nH]ccc5c4)c3)CC2)=C(c2ccc(Cl)cc2)C1 [Venetoclax] + C[C@]1(O)C[C@@H](c2nc(-c3ccc4ccc(-c5ccccc5)nc4c3)c3c(N)nccn32)C1 [Linsitinib] (partner 1 µM)
The method, boiled down:
as §1

With UMC-11, the relative viability turned out to be 0.685 in the experiment with Selumetinib + Bortezomib (first compound 0.02 µM); 0.589 in the experiment with Selumetinib + Bortezomib (first compound 0.06325 µM); 0.974 with Selumetinib + Bortezomib (first compound 0.2 µM); 0.848 with Selumetinib + Bortezomib (first compound 0.6325 µM); 0.215 with Selumetinib + Tozasertib (first compound 0.02 µM); 0.203 with Selumetinib + Tozasertib (first compound 0.06325 µM). Further, the relative viability with Selumetinib + Tozasertib (first compound 0.2 µM) came out at 0.205; in the experiment with Selumetinib + Tozasertib (first compound 0.6325 µM), 0.199; with Selumetinib + Dasatinib (first compound 0.02 µM), 0.465; in the experiment with Selumetinib + Dasatinib (first compound 0.06325 µM), 0.486; with Selumetinib + Dasatinib (first compound 0.2 µM), 0.474; with Selumetinib + Dasatinib (first compound 0.6325 µM), 0.547. Besides, the relative viability amounted to 1 with Venetoclax + Linsitinib (first compound 0.01 µM); 1.01 with Venetoclax + Linsitinib (first compound 0.03162 µM); 0.912 with Venetoclax + Linsitinib (first compound 0.1 µM); 0.932 with Venetoclax + Linsitinib (first compound 0.3162 µM); 0.959 with Venetoclax + Linsitinib (first compound 1 µM).
